Source: PubChem BioAssay (NCI)
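Protocol summary: plate cells (96-well), add compound at 5 concentrations, incubate 48 h, interpolate endpoints linearly. At the GI50, growth is halved. TGI: total growth inhibition.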

What was measured:
Experiment in all cases: NCI tumour cell line growth inhibition, 48 h
A498 renal = tested on: A498 renal
ACHN renal = tested on: ACHN renal
CAKI-1 renal = tested on: CAKI-1 renal
COLO 205 colon = tested on: COLO 205 colon
DU-145 prostate = tested on: DU-145 prostate
HL-60(TB) leukemia = tested on: HL-60(TB) leukemia
HS 578T breast = tested on: HS 578T breast
KM12 colon = tested on: KM12 colon
MCF7 breast = tested on: MCF7 breast
MDA-MB-231 breast = tested on: MDA-MB-231 breast
MDA-MB-435 = tested on: MDA-MB-435
NCI-H226 lung = tested on: NCI-H226 lung
NCI/ADR-RES ovarian = tested on: NCI/ADR-RES ovarian
OVCAR-4 ovarian = tested on: OVCAR-4 ovarian
OVCAR-5 ovarian = tested on: OVCAR-5 ovarian
SF-539 CNS = tested on: SF-539 CNS
SK-MEL-2 melanoma = tested on: SK-MEL-2 melanoma
SK-MEL-28 melanoma = tested on: SK-MEL-28 melanoma
SK-OV-3 ovarian = tested on: SK-OV-3 ovarian
SN12C renal = tested on: SN12C renal
SNB-75 CNS = tested on: SNB-75 CNS
T-47D breast = tested on: T-47D breast
TK-10 renal = tested on: TK-10 renal
UACC-257 melanoma = tested on: UACC-257 melanoma
UACC-62 melanoma = tested on: UACC-62 melanoma

Cc1ccc(NC(=O)c2ccc(CN3CCN(C)CC3)c(I)c2)cc1Oc1ccc(-c2[nH]nc3ncnc(N)c23)cc1
GI50 (A498 renal): 18.8 µM
TGI (A498 renal): 38.3 µM
GI50 (ACHN renal): 1.8 µM
TGI (ACHN renal): 3.33 µM
GI50 (CAKI-1 renal): 12 µM
TGI (CAKI-1 renal): 28.1 µM
GI50 (COLO 205 colon): 1.73 µM
TGI (COLO 205 colon): 5.08 µM
GI50 (DU-145 prostate): 1.88 µM
TGI (DU-145 prostate): 3.45 µM
GI50 (HL-60(TB) leukemia): 4.42 µM
TGI (HL-60(TB) leukemia): > 100 µM
GI50 (HS 578T breast): 1.77 µM
TGI (HS 578T breast): 5.09 µM
GI50 (KM12 colon): 1.79 µM
TGI (KM12 colon): 3.59 µM
GI50 (MCF7 breast): 1.35 µM
TGI (MCF7 breast): 2.94 µM
GI50 (MDA-MB-231 breast): 1.85 µM
TGI (MDA-MB-231 breast): 3.47 µM
GI50 (MDA-MB-435): 1.58 µM
TGI (MDA-MB-435): 3.01 µM
GI50 (NCI-H226 lung): 23.2 µM
TGI (NCI-H226 lung): 84.9 µM
GI50 (NCI/ADR-RES ovarian): 3.93 µM
TGI (NCI/ADR-RES ovarian): 40.7 µM
GI50 (OVCAR-4 ovarian): 18 µM
TGI (OVCAR-4 ovarian): 40.7 µM
GI50 (OVCAR-5 ovarian): 1.94 µM
TGI (OVCAR-5 ovarian): 3.52 µM
GI50 (SF-539 CNS): 1.26 µM
TGI (SF-539 CNS): 2.68 µM
GI50 (SK-MEL-2 melanoma): 24.7 µM
TGI (SK-MEL-2 melanoma): 80.1 µM
GI50 (SK-MEL-28 melanoma): 1.63 µM
TGI (SK-MEL-28 melanoma): 3.12 µM
GI50 (SK-OV-3 ovarian): 26.2 µM
TGI (SK-OV-3 ovarian): 63.9 µM
GI50 (SN12C renal): 12.1 µM
TGI (SN12C renal): 33.8 µM
GI50 (SNB-75 CNS): 0.458 µM
TGI (SNB-75 CNS): 20.8 µM
GI50 (T-47D breast): 2.72 µM
TGI (T-47D breast): > 100 µM
GI50 (TK-10 renal): 5.33 µM
TGI (TK-10 renal): 28 µM
GI50 (UACC-257 melanoma): 2.03 µM
TGI (UACC-257 melanoma): 4.59 µM
GI50 (UACC-62 melanoma): 1.73 µM
TGI (UACC-62 melanoma): 3.35 µM
